Measurements reported in publication PMC4725312 (Journal of biomolecular screening, 2010).

Biological target: TRPM7 (Mus musculus, UniProt Q923J1)
Type: cell-based

Sequence of TRPM7 (Q923J1 whole entry): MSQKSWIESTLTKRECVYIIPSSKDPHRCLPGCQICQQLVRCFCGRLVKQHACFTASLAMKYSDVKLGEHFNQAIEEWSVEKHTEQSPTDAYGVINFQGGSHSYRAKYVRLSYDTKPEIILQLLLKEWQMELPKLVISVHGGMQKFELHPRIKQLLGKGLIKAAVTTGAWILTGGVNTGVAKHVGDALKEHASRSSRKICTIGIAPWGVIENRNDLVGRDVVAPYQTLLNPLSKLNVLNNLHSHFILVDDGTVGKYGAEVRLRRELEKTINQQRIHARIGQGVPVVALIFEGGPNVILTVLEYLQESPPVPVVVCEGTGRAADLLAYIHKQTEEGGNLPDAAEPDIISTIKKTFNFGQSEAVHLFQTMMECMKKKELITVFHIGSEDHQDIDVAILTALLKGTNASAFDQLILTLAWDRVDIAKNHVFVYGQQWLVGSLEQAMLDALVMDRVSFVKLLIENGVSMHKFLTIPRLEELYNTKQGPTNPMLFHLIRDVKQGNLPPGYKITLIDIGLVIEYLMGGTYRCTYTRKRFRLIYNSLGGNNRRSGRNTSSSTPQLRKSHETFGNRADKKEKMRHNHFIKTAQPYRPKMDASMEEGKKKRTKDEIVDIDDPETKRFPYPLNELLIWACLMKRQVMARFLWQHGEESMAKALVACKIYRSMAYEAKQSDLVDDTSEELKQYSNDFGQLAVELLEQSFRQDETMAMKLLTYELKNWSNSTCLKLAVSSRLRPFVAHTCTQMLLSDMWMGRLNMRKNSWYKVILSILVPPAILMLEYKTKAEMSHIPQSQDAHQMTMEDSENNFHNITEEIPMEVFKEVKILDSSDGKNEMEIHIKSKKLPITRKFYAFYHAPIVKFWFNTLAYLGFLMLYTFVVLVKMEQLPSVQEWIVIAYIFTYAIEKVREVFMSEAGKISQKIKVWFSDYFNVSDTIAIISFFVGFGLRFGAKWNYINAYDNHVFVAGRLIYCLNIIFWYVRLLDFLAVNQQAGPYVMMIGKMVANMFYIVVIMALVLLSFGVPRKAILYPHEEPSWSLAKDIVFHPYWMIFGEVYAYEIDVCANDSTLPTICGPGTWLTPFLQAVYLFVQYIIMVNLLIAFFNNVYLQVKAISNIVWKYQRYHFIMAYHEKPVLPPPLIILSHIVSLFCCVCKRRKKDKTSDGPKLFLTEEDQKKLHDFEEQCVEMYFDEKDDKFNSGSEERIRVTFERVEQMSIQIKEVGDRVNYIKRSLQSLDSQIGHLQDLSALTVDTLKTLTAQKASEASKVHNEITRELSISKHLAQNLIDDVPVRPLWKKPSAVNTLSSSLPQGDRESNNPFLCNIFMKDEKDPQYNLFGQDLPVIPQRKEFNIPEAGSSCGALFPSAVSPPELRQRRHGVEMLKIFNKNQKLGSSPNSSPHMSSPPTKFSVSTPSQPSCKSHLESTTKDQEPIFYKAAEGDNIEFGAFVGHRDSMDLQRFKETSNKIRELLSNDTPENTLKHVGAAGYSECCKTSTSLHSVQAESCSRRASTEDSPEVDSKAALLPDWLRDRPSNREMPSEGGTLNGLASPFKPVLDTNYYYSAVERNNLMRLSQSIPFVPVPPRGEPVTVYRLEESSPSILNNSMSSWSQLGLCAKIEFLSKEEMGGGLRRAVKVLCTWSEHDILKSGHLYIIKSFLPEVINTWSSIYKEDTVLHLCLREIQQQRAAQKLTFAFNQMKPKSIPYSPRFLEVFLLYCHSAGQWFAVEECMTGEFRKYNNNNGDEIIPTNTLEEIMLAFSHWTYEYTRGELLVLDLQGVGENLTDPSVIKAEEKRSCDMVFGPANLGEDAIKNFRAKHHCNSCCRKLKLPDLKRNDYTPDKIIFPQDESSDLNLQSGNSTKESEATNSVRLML

Q: For `NCCOB(c1ccccc1)c1ccccc1` [2-APB], which IC50 is on record?
A: The IC50 was 30 µM.
